Patent US7879342B2, “Vaccine adjuvant and making and using the same” (Univ. of Georgia Research Foundation, Inc., priority 2004, dated 2011)

Test system: Eimeria tenella
Experiment: Protective immunity against Eimeria tenella challenge after in ovo treatment and live coccidiosis vaccine
Format: in vivo, Broiler chicks
Parameters: key to Mean Cecal Score: cecal lesion score per Johnson & Reid (1970); Mean Gain: unit not given here
Settings: challenged at 28 days
Text: A laboratory strain of Eimeria tenella was used as live coccidiosis vaccine (1000 oocysts per bird), and was given by individual oral gavage to day-old chicks. At 28 days of age, each bird was challenged by inoculation of virulent cecal coccidia (a field isolate of E. tenella with a challenge dose of 100,000 oocysts per bird) or kept as unchallenged controls. Six days post-challenge, birds were euthanized for necropsy and lesion score (see, e.g., Johnson & Reid, 1970, Exper. Parasitol. 28:30-36). Weight gains were calculated. […] Partial protection is not uncommon with coccidiosis vaccines administered in this way in short term challenge experiments. […]

[1] = E10 (10 IU) in ovo, Table 2 second set
[2] = E10 (10 IU) in ovo, Table 2 third set
[3] = E20 (20 IU) in ovo, Table 2 second set
[4] = E20 (20 IU) in ovo, Table 2 third set
[5] = E30 (30 IU) in ovo, Table 2 second set
[6] = E30 (30 IU) in ovo, Table 2 third set

## vitamin E
[1]
  Mean Cecal Score: 1.53
  Mean Gain: 361
[2]
  Mean Cecal Score: 1.46
  Mean Gain: 438
[3]
  Mean Cecal Score: 1.73
  Mean Gain: 357
[4]
  Mean Cecal Score: 1.21
  Mean Gain: 322
[5]
  Mean Cecal Score: 1.55
  Mean Gain: 388
[6]
  Mean Cecal Score: 0.5
  Mean Gain: 454
